How the values were obtained:
Format in all cases: cell-based
[1] = system: D. desulfuricans strain G100A; assay: Growth by pyruvate fermentation in the absence of sulfate
Description: D. desulfuricans strain G100A was grown using pyruvate fermentation in the absence of sulfate.

[2] = system: Thiobacillus denitrificans; assay: Growth of Thiobacillus denitrificans
Description: Thiobacillus denitrificans was grown on BTZ-3 medium as defined in Example 1 (supplemented with reducing agent) and with 30 mM sodium nitrate plus 30 mM sodium thiosulfate. Cultures were anaerobic under a nitrogen atmosphere. Thus growth conditions mimicked those for the sulfate-reducingbacteria as closely as possible. […]

D. vulgaris = assay: Growth of different sulfate-reducers with 1,8-dihydroxyanthraquinone (Example 10); conditions: 3 ppm, 40 hours; control .20
Description: (§1) Growth was monitored as optical density at 660 nm for 40 hours.

[3] = system: D. desulfuricans #ATCC 27774; assay: Growth of different sulfate-reducers with 1,8-dihydroxyanthraquinone (Example 9); conditions: 3 ppm, 40 hours; control .45
Description: as §1

D. desulfuricans G100A = assay: Effect of dithionite-reduced anthraquinones on growth of D. desulfuricans G100A
Description: Three anthraquinones, 1,8-dihydroxy-, 1-chloro-, and 3-chloro-2-carboxy- were prepared as 1 ml of 1000 ppm solutions in acetone for the first two compounds or water for the third. These solutions were then treated with 1 mg of the strong reducing agent, sodium dithionite. 50 ul of each solution (for a final culture concentration of 5 ppm) was used immediately to treat growing cultures of D. desulfuricans G100A in BTZ-3 medium as defined in Example 1. The compounds were added to the 10 ml cultures at 15 h of growth.

[4] = system: Escherichia coli strain MC106; assay: Aerobic and anaerobic growth of Escherichia coli; conditions: 5 ppm
Description: Another non-sulfate reducing organism, Escherichia coli strain MC106 was grown under aerobic conditions on BTZ-3 with 30 mM sodium succinate as sole carbon and electron source with oxygen as electron acceptor or under anaerobic conditions with hydrogen (80% as electron donor) and carbon dioxide (20%) as gas phase and sodium fumarate (30 mM) as electron acceptor. Both media contained 0.2% yeast extract.
Aerobic growth with succinate refers to growth on succinate as a carbon and electron source and oxygen as an electron acceptor. Anaerobic growth under hydrogen/carbon dioxide refers to growth with hydrogen as an electron donor and fumarate as an electron acceptor.

D. multispirans = assay: Growth of different sulfate-reducers with 1,8-dihydroxyanthraquinone (Example 5); conditions: 3 ppm, 40 hours; control >1.5
Description: as §1

## O=C1c2cccc(O)c2C(=O)c2c(O)cccc21 [1,8-Dihydroxyanthraquinone]
[1]; 0 h, before addition of 3 ppm at 6.5 h, control .11
  Optical Density @ 660 nm: .1
[1]; 3 ppm
  effect on fermentative growth (in words): did not affect fermentative growth
[1]; 2 h, before addition of 3 ppm at 6.5 h, control .12
  Optical Density @ 660 nm: .12
[1]; 3.5 h, before addition of 3 ppm at 6.5 h, control .14
  Optical Density @ 660 nm: .14
[1]; 6.5 h, time of addition of 3 ppm, control .15
  Optical Density @ 660 nm: .16
[1]; 8.5 h, 3 ppm added at 6.5 h, control .18
  Optical Density @ 660 nm: .16
[1]; 10.7 h, 3 ppm added at 6.5 h, control .19
  Optical Density @ 660 nm: .17
[1]; 25 h, 3 ppm added at 6.5 h, control .26
  Optical Density @ 660 nm: .22
[1]; 32 h, 3 ppm added at 6.5 h, control .37
  Optical Density @ 660 nm: .34
[1]; 45 h, 3 ppm added at 6.5 h, control .46
  Optical Density @ 660 nm: .45
[2]; 0 h of growth, before addition of 3 ppm at 19 h, control .02
  Optical Density @ 660 nm: .0
[2]; 3 ppm
  effect on growth (in words): no effect on the growth of T. denitrificans
[2]; 12 h of growth, before addition of 3 ppm at 19 h, control .06
  Optical Density @ 660 nm: .06
[2]; 15 h of growth, before addition of 3 ppm at 19 h, control .08
  Optical Density @ 660 nm: .08
[2]; 19 h of growth, time of addition of 3 ppm, control .09
  Optical Density @ 660 nm: .09
[2]; 34 h of growth, 3 ppm added at 19 h, control .22
  Optical Density @ 660 nm: .22
[2]; 36 h of growth, 3 ppm added at 19 h, control .29
  Optical Density @ 660 nm: .25
[2]; 38 h of growth, 3 ppm added at 19 h, control .32
  Optical Density @ 660 nm: .27
[2]; 43 h of growth, 3 ppm added at 19 h, control .40
  Optical Density @ 660 nm: .32
[2]; 55 h of growth, 3 ppm added at 19 h, control 1.5
  Optical Density @ 660 nm: 1.5
D. vulgaris
  Optical Density @ 660 nm, treated: .05
[3]
  Optical Density @ 660 nm, treated: .08
D. desulfuricans G100A; 0 h, before addition of 5 ppm dithionite-reduced compound at 15 h, control 0.02
  Optical Density @ 660 nm: 0.02
D. desulfuricans G100A; 2 h, before addition of 5 ppm dithionite-reduced compound at 15 h, control 0.02
  Optical Density @ 660 nm: 0.02
D. desulfuricans G100A; 12 h, before addition of 5 ppm dithionite-reduced compound at 15 h, control 0.08
  Optical Density @ 660 nm: 0.10
D. desulfuricans G100A; 15 h, time of addition of 5 ppm dithionite-reduced compound, control 0.18
  Optical Density @ 660 nm: 0.2
D. desulfuricans G100A; 17 h, 5 ppm dithionite-reduced compound added at 15 h, control 0.26
  Optical Density @ 660 nm: 0.24
D. desulfuricans G100A; 20 h, 5 ppm dithionite-reduced compound added at 15 h, control 0.37
  Optical Density @ 660 nm: 0.23
D. desulfuricans G100A; 25 h, 5 ppm dithionite-reduced compound added at 15 h, control 0.50
  Optical Density @ 660 nm: 0.22
D. desulfuricans G100A; 30 h, 5 ppm dithionite-reduced compound added at 15 h, control 0.98
  Optical Density @ 660 nm: 0.23
D. desulfuricans G100A; 45 h, 5 ppm dithionite-reduced compound added at 15 h, control 1.50
  Optical Density @ 660 nm: 0.25
[4]
  inhibition of aerobic or anaerobic growth (in words): virtually no inhibition
[4]; aerobic growth with succinate, 0 h, control 0.01
  Optical Density @ 660 nm: 0.01
[4]; aerobic growth with succinate, 5.5 h, control 0.17
  Optical Density @ 660 nm: 0.24
[4]; aerobic growth with succinate, 6.5 h, control 0.37
  Optical Density @ 660 nm: 0.39
[4]; aerobic growth with succinate, 7.5 h, control 0.38
  Optical Density @ 660 nm: 0.40
[4]; aerobic growth with succinate, 24 h, control 1.50
  Optical Density @ 660 nm: 1.50
[4]; anaerobic growth under hydrogen/carbon dioxide, 0 h, control 0.0
  Optical Density @ 660 nm: 0.01
[4]; anaerobic growth under hydrogen/carbon dioxide, 3.5 h, control 0.30
  Optical Density @ 660 nm: 0.29
[4]; anaerobic growth under hydrogen/carbon dioxide, 4.5 h, control 0.45
  Optical Density @ 660 nm: 0.62
[4]; anaerobic growth under hydrogen/carbon dioxide, 5.5 h, control 0.61
  Optical Density @ 660 nm: 0.79
[4]; anaerobic growth under hydrogen/carbon dioxide, 6.0 h, control 0.75
  Optical Density @ 660 nm: 0.87
D. multispirans
  Optical Density @ 660 nm, treated: .28
